Experiments:
Cerebellum [1] = test: Biodistribution in Sprague-Dawley rat cerebellum at 14.8 to 18.5 MBq, iv measured at 5 mins post-injection by gamma counting analysis; assay type: ADME, organism-based; conditions: in vivo
Cerebellum [2] = test: Biodistribution in Sprague-Dawley rat cerebellum at 14.8 to 18.5 MBq, iv measured at 30 mins post-injection by gamma counting analysis; assay type: ADME, organism-based; conditions: in vivo, 0.5 h
Liver [3] = test: Biodistribution in Sprague-Dawley rat liver at 14.8 to 18.5 MBq, iv measured at 60 mins post-injection by gamma counting analysis; assay type: ADME, organism-based; conditions: in vivo, 1 h
Striatum [4] = test: Biodistribution in Sprague-Dawley rat striatum at 14.8 to 18.5 MBq, iv measured at 60 mins post-injection by gamma counting analysis; assay type: ADME, organism-based; conditions: in vivo, 1 h
Rattus norvegicus [5] = test: Biodistribution in Sprague-Dawley rat fat at 14.8 to 18.5 MBq, iv measured at 60 mins post-injection by gamma counting analysis; assay type: ADME, organism-based, Adipose tissue; conditions: in vivo, 1 h
Rattus norvegicus [6] = test: Biodistribution in Sprague-Dawley rat fat at 14.8 to 18.5 MBq, iv measured at 5 mins post-injection by gamma counting analysis; assay type: ADME, organism-based, Adipose tissue; conditions: in vivo
Kidney [7] = test: Biodistribution in Sprague-Dawley rat kidney at 14.8 to 18.5 MBq, iv measured at 5 mins post-injection by gamma counting analysis; assay type: ADME, organism-based; conditions: in vivo
Muscle tissue [8] = test: Biodistribution in Sprague-Dawley rat muscle at 14.8 to 18.5 MBq, iv measured at 60 mins post-injection by gamma counting analysis; assay type: ADME, organism-based; conditions: in vivo, 1 h
Kidney [9] = test: Biodistribution in Sprague-Dawley rat kidney at 14.8 to 18.5 MBq, iv measured at 30 mins post-injection by gamma counting analysis; assay type: ADME, organism-based; conditions: in vivo, 0.5 h
Cerebellum [10] = test: Biodistribution in Sprague-Dawley rat cerebellum at 14.8 to 18.5 MBq, iv measured at 60 mins post-injection by gamma counting analysis; assay type: ADME, organism-based; conditions: in vivo, 1 h
Liver [11] = test: Biodistribution in Sprague-Dawley rat liver at 14.8 to 18.5 MBq, iv measured at 5 mins post-injection by gamma counting analysis; assay type: ADME, organism-based; conditions: in vivo
Lung [12] = test: Biodistribution in Sprague-Dawley rat lung at 14.8 to 18.5 MBq, iv measured at 30 mins post-injection by gamma counting analysis; assay type: ADME, organism-based; conditions: in vivo, 0.5 h
Blood [13] = test: Biodistribution in Sprague-Dawley rat blood at 14.8 to 18.5 MBq, iv measured at 30 mins post-injection by gamma counting analysis; assay type: ADME, organism-based; conditions: in vivo, 0.5 h
Brain [14] = test: Biodistribution in Sprague-Dawley rat brain at 14.8 to 18.5 MBq, iv measured at 30 mins post-injection by gamma counting analysis; assay type: ADME, organism-based; conditions: in vivo, 0.5 h
Kidney [15] = test: Biodistribution in Sprague-Dawley rat kidney at 14.8 to 18.5 MBq, iv measured at 60 mins post-injection by gamma counting analysis; assay type: ADME, organism-based; conditions: in vivo, 1 h
Muscle tissue [16] = test: Biodistribution in Sprague-Dawley rat muscle at 14.8 to 18.5 MBq, iv measured at 30 mins post-injection by gamma counting analysis; assay type: ADME, organism-based; conditions: in vivo, 0.5 h
Blood [17] = test: Biodistribution in Sprague-Dawley rat blood at 14.8 to 18.5 MBq, iv measured at 5 mins post-injection by gamma counting analysis; assay type: ADME, organism-based; conditions: in vivo
Heart [18] = test: Biodistribution in Sprague-Dawley rat heart at 14.8 to 18.5 MBq, iv measured at 60 mins post-injection by gamma counting analysis; assay type: ADME, organism-based; conditions: in vivo, 1 h
Blood [19] = test: Biodistribution in Sprague-Dawley rat blood at 14.8 to 18.5 MBq, iv measured at 60 mins post-injection by gamma counting analysis; assay type: ADME, organism-based; conditions: in vivo, 1 h
Muscle tissue [20] = test: Biodistribution in Sprague-Dawley rat muscle at 14.8 to 18.5 MBq, iv measured at 5 mins post-injection by gamma counting analysis; assay type: ADME, organism-based; conditions: in vivo
Striatum [21] = test: Biodistribution in Sprague-Dawley rat striatum at 14.8 to 18.5 MBq, iv measured at 30 mins post-injection by gamma counting analysis; assay type: ADME, organism-based; conditions: in vivo, 0.5 h
Heart [22] = test: Biodistribution in Sprague-Dawley rat heart at 14.8 to 18.5 MBq, iv measured at 30 mins post-injection by gamma counting analysis; assay type: ADME, organism-based; conditions: in vivo, 0.5 h
Brain [23] = test: Biodistribution in Sprague-Dawley rat brain at 14.8 to 18.5 MBq, iv measured at 60 mins post-injection by gamma counting analysis; assay type: ADME, organism-based; conditions: in vivo, 1 h
Lung [24] = test: Biodistribution in Sprague-Dawley rat lung at 14.8 to 18.5 MBq, iv measured at 60 mins post-injection by gamma counting analysis; assay type: ADME, organism-based; conditions: in vivo, 1 h
Striatum [25] = test: Biodistribution in Sprague-Dawley rat striatum at 14.8 to 18.5 MBq, iv measured at 5 mins post-injection by gamma counting analysis; assay type: ADME, organism-based; conditions: in vivo
Lung [26] = test: Biodistribution in Sprague-Dawley rat lung at 14.8 to 18.5 MBq, iv measured at 5 mins post-injection by gamma counting analysis; assay type: ADME, organism-based; conditions: in vivo
Heart [27] = test: Biodistribution in Sprague-Dawley rat heart at 14.8 to 18.5 MBq, iv measured at 5 mins post-injection by gamma counting analysis; assay type: ADME, organism-based; conditions: in vivo
Rattus norvegicus [28] = test: Biodistribution in Sprague-Dawley rat fat at 14.8 to 18.5 MBq, iv measured at 30 mins post-injection by gamma counting analysis; assay type: ADME, organism-based, Adipose tissue; conditions: in vivo, 0.5 h
Brain [29] = test: Biodistribution in Sprague-Dawley rat brain at 14.8 to 18.5 MBq, iv measured at 5 mins post-injection by gamma counting analysis; assay type: ADME, organism-based; conditions: in vivo
Liver [30] = test: Biodistribution in Sprague-Dawley rat liver at 14.8 to 18.5 MBq, iv measured at 30 mins post-injection by gamma counting analysis; assay type: ADME, organism-based; conditions: in vivo, 0.5 h
Nucleic Acid = test: Ratio of drug level in striatum to cerebellum in Sprague-Dawley rat at 14.8 to 18.5 MBq, iv measured at 30 mins post-injection by gamma counting analysis; assay type: ADME, organism-based; conditions: in vivo, 0.5 h

Drug uptake (Cerebellum [1]) [% ID/g]	Drug uptake (Cerebellum [2]) [% ID/g]	Drug uptake (Liver [3]) [% ID/g]	Drug uptake (Striatum [4]) [% ID/g]	Drug uptake (Rattus norvegicus [5]) [% ID/g]	Drug uptake (Rattus norvegicus [6]) [% ID/g]	Drug uptake (Kidney [7]) [% ID/g]	Drug uptake (Muscle tissue [8]) [% ID/g]	Drug uptake (Kidney [9]) [% ID/g]	Drug uptake (Cerebellum [10]) [% ID/g]	Drug uptake (Liver [11]) [% ID/g]	Drug uptake (Lung [12]) [% ID/g]	Drug uptake (Blood [13]) [% ID/g]	Drug uptake (Brain [14]) [% ID/g]	Drug uptake (Kidney [15]) [% ID/g]	Drug uptake (Muscle tissue [16]) [% ID/g]	Drug uptake (Blood [17]) [% ID/g]	Drug uptake (Heart [18]) [% ID/g]	Drug uptake (Blood [19]) [% ID/g]	Drug uptake (Muscle tissue [20]) [% ID/g]	SMILES	also measured
0.251	0.09	1.724	0.089	0.135	0.139	1.333	0.129	0.883	0.066	5.357	0.389	0.275	0.105	0.637	0.175	0.282	0.182	0.21	0.151	Cn1cc(-c2ccncc2)c(-c2ccc(OCc3ccc4cc(O[11CH3])ccc4n3)cc2)n1	Drug uptake (Striatum [21]): 0.16 % ID/g; Drug uptake (Heart [22]): 0.264 % ID/g; Drug uptake (Brain [23]): 0.074 % ID/g; Drug uptake (Lung [24]): 0.249 % ID/g; Drug uptake (Striatum [25]): 0.293 % ID/g; Drug uptake (Lung [26]): 0.744 % ID/g; Drug uptake (Heart [27]): 0.416 % ID/g; Drug uptake (Rattus norvegicus [28]): 0.221 % ID/g; Drug uptake (Brain [29]): 0.249 % ID/g; Drug uptake (Liver [30]): 3.172 % ID/g
0.094	0.024	4.588	0.037	0.139	0.066	1.744	0.052	0.645	0.015	3.312	0.156	0.067	0.025	0.575	0.093	0.099	0.103	0.067	0.146	Cn1ncc(-c2ccncc2)c1-c1ccc(OCc2cc(O[11CH3])c3ccccc3n2)cc1	Drug uptake (Striatum [21]): 0.083 % ID/g; Drug uptake (Heart [22]): 0.132 % ID/g; Drug uptake (Brain [23]): 0.015 % ID/g; Drug uptake (Lung [24]): 0.107 % ID/g; Drug uptake (Striatum [25]): 0.151 % ID/g; Drug uptake (Lung [26]): 0.643 % ID/g; Drug uptake (Heart [27]): 0.335 % ID/g; Drug uptake (Rattus norvegicus [28]): 0.139 % ID/g; Drug uptake (Brain [29]): 0.091 % ID/g; Ratio (Nucleic Acid): 3.6; Drug uptake (Liver [30]): 4.43 % ID/g

Source: ChEMBL document CHEMBL3259797, “Radiosyntheses and in vivo evaluation of carbon-11 PET tracers for PDE10A in the brain of rodent and nonhuman primate” (Bioorg Med Chem, 2014)
